Structures can show the parent of a compound that is named as a salt.
biological target: T1, recombinant full-length USP7 (Homo sapiens, UniProt Q93009); assay: USP7-mediated ubiquitin-rhodamine cleavage assay; assay type: biochemical; conditions: recombinant full-length USP7 62 pM; ubiquitin-rhodamine 100 nM; 30-minute incubation with compound, 1 hour reaction at room temperature; read-out: Potency: USP7 IC50
T1 construct: A 25 μl reaction volume containing recombinant full-length USP7 (62 pM)
Method in brief: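 Compounds are first incubated with 62 pM enzyme for 30 min at room temperature in pH 7.3 HEPES buffer containing TCEP and BSA. Cleavage of 100 nM ubiquitin-rhodamine proceeds for 1 h before an acid quench, and IC50 is derived from fluorescence.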

T1 sequence (Q93009 whole entry): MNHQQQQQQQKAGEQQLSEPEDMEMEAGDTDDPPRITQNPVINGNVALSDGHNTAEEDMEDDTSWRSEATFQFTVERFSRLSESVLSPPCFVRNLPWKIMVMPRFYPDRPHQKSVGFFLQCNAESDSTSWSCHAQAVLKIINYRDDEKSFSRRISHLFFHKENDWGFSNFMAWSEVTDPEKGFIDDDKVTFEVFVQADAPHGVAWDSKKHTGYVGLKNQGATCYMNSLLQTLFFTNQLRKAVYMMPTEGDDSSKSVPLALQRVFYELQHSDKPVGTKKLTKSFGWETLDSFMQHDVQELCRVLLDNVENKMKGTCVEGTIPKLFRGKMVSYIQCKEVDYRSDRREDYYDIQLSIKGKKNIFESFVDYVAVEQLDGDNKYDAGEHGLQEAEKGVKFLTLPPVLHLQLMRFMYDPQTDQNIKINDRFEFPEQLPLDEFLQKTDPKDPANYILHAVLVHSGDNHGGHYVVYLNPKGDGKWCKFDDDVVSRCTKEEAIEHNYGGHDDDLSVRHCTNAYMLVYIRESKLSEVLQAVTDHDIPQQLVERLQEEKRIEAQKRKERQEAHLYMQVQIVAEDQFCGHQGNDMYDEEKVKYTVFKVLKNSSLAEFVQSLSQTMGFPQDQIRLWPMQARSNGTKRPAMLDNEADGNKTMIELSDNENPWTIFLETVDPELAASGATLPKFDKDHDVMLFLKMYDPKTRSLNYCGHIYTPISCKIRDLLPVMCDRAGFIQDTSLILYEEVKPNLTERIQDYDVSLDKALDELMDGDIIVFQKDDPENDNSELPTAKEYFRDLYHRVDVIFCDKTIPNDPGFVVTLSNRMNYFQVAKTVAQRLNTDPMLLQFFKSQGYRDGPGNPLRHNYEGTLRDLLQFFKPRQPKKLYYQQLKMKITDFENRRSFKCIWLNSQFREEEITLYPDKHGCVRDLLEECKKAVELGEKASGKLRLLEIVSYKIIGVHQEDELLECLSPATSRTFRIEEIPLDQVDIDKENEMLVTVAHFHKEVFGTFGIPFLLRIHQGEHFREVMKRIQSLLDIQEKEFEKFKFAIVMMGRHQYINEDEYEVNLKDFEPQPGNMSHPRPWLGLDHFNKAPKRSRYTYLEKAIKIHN

SMILES	IC50 [µM]
Cc1cc(Cl)cc(-c2ncnc3cc(CN4C(=O)CCCC4=O)sc23)c1O[C@@H]1CNC[C@@H]1F [Example 134, 1-((4-(5-Chloro-2-(((3R,4S)-4-fluoropyrrolidin-3-yl)oxy)-3-methylphenyl)thieno[3,2-d]pyrimidin-6-yl)methyl)piperidine-2,6-dione]	< 1
Cc1cc(F)cc(-c2ccnc3cc(CO)sc23)c1O[C@H]1CCCNC1 [Example 238, (S)-(7-(5-Fluoro-3-methyl-2-(piperidin-3-yloxy)phenyl)thieno[3,2-b]pyridin-2-yl)methanol]	10 to 30
Cc1cc(Cl)cc(-c2ncnc3cc(CN4C(=O)C5C(C4=O)C5(C)C)sc23)c1O[C@@H]1CN(C)C[C@@H]1F (stereo partly drawn) [Example 348, 3-[[4-[5-chloro-2-[(3R,4S)-4-fluoro-1-methyl-pyrrolidin-3-yl]oxy-3-methyl-phenyl]thieno[3,2-d]pyrimidin-6-yl]methyl]-6,6-dimethyl-3-azabicyclo[3.1.0]hexane-2,4-dione dihydrochloride]	< 1
CCC(O)c1cc2ncnc(-c3cc(C#N)cc(C)c3O[C@@H]3CNC[C@@H]3F)c2s1 (stereo partly drawn) [Example 95, 4-(((3R,4S)-4-Fluoropyrrolidin-3-yl)oxy)-3-(6-(1-hydroxypropyl)thieno[3,2-d]pyrimidin-4-yl)-5-methylbenzonitrile]	< 1
Cc1cc(Cl)cc(-c2ncnc3cc(CN4C(=O)C(C)C(C)C4=O)sc23)c1O[C@@H]1CNC[C@@H]1F (stereo partly drawn) [Example 379, 1-[[4-[5-chloro-2-[(3R,4S)-4-fluoropyrrolidin-3-yl]oxy-3-methyl-phenyl]thieno[3,2-d]pyrimidin-6-yl]methyl]-3,4-dimethyl-pyrrolidine-2,5-dione; 2,2,2-trifluoroacetic acid]	< 1
Cc1cc(Cl)cc(-c2ccnc3cc(Cn4c(=O)ccn(CC(F)(F)F)c4=O)sc23)c1O[C@H]1CCC(C)(C)NC1 [Example 286, 3-[[7-[5-chloro-2-[[(3S)-6,6-dimethyl-3-piperidyl]oxy]-3-methyl-phenyl]thieno[3,2-b]pyridin-2-yl]methyl]-1-(2,2,2-trifluoroethyl)pyrimidine-2,4-dione; 2,2,2-trifluoroacetic acid]	< 1

The next lines start with the values.

IC50 [µM]	SMILES
1 to 10	Cc1cc(Cl)cc(-c2ncnc3cc(CN4C(=O)C5CCCN5C4=O)sc23)c1O[C@@H]1CNC[C@@H]1F (stereo partly drawn) [Example 160, 2-((4-(5-Chloro-2-(((3R,4S)-4-fluoropyrrolidin-3-yl)oxy)-3-methylphenyl)thieno[3,2-d]pyrimidin-6-yl)methyl)tetrahydro-1H-pyrrolo[1,2-c]imidazole-1,3(2H)-dione]
< 1	Cc1cc(Cl)cc(-c2ccnc3cc([C@H](C)N4C(=O)CCC4=O)sc23)c1O[C@@H]1CCNC[C@H]1F [Example 289, 1-[(1S)-1-[7-[5-chloro-2-[[(3R,4R)-3-fluoro-4-piperidyl]oxy]-3-methyl-phenyl]thieno[3,2-b]pyridin-2-yl]ethyl]pyrrolidine-2,5-dione; 2,2,2-trifluoroacetic acid]
< 1	Cc1cc(Cl)cc(-c2ccnc3cc(Cn4c(=O)ccn(CC(F)(F)F)c4=O)sc23)c1OC1CNC1 [Example 61, 3-((7-(2-(Azetidin-3-yloxy)-5-chloro-3-methylphenyl)thieno[3,2-b]pyridin-2-yl)methyl)-1-(2,2,2-trifluoroethyl)pyrimidine-2,4(1H,3H)-dione]
1 to 10	Cc1cc(Cl)cc(-c2ccnc3cc(CO)sc23)c1OCC1(F)CNC1 [Example 20, (7-(5-Chloro-2-((3-fluoroazetidin-3-yl)methoxy)-3-methylphenyl)thieno[3,2-b]pyridin-2-yl)methanol]
< 1	Cc1cc(Cl)cc(-c2ncnc3cc(CN4C(=O)CSC4=O)sc23)c1O[C@H]1CCCNC1 [Example 250, (S)-3-((4-(5-Chloro-3-methyl-2-(piperidin-3-yloxy)phenyl)thieno[3,2-d]pyrimidin-6-yl)methyl)thiazolidine-2,4-dione]

same assay, conditions: recombinant full-length USP7 62 pM; ubiquitin-rhodamine 100 nM; 30-minute incubation, 1 hour reaction at room temperature; read-out: Potency (USP7 IC50)

SMILES	IC50 [µM]
Cc1cc(Cl)cc(-c2ccnc3cc(Cn4c(=O)ccn(CC(F)(F)F)c4=O)sc23)c1OC1CC(N2C[C@@H]3C[C@H]2CO3)C1 (stereo partly drawn) [Example 675, 3-[[7-[5-chloro-3-methyl-2-[3-[(1S,4S)-2-oxa-5-azabicyclo[2.2.1]heptan-5-yl]cyclobutoxy]phenyl]thieno[3,2-b]pyridin-2-yl]methyl]-1-(2,2,2-trifluoroethyl)pyrimidine-2,4-dione]	< 1

same assay, conditions: recombinant full-length USP7 62 pM; ubiquitin-rhodamine 100 nM; 30-minute pre-incubation, 1 hour reaction at room temperature; read-out: Potency (USP7 IC50)

SMILES	IC50 [µM]
Cc1cc(Cl)cc(-c2ncnc3cc(Cn4c(=O)ccn(C)c4=O)sc23)c1O[C@H]1CCNC[C@@H]1F [Example 560, 3-[[4-[5-chloro-2-[[(3S,4S)-3-fluoro-4-piperidyl]oxy]-3-methyl-phenyl]thieno[3,2-d]pyrimidin-6-yl]methyl]-1-methyl-pyrimidine-2,4-dione]	< 1
Cc1cc(Cl)cc(-c2ccnc3cc(Cn4c(=O)ccn(C)c4=O)sc23)c1O[C@@H]1CC[C@](C)(N)C1 [Example 519, 3-[[7-[2-[(1R,3S)-3-amino-3-methyl-cyclopentoxy]-5-chloro-3-methyl-phenyl]thieno[3,2-b]pyridin-2-yl]methyl]-1-methyl-pyrimidine-2,4-dione; 2,2,2-trifluoroacetic acid]	< 1
Cc1cc(Cl)cc(-c2ccnc3cc(Cn4c(=O)ccn(CC(F)(F)F)c4=O)sc23)c1O[C@H]1CC[C@](C)(N2CCOCC2)C1 [Example 612, 3-[[7-[5-chloro-3-methyl-2-[(1S,3S)-3-methyl-3-morpholino-cyclopentoxy]phenyl]thieno[3,2-b]pyridin-2-yl]methyl]-1-(2,2,2-trifluoroethyl)pyrimidine-2,4-dione; 2,2,2-trifluoroacetic acid]	< 1
Cc1cc(Cl)cc(-c2ccnc3cc(Cn4c(=O)ccn(C)c4=O)sc23)c1OC1C(C)(C)C(N)C1(C)C (centres unmarked) [Example 538, 3-[[7-[2-(3-amino-2,2,4,4-tetramethyl-cyclobutoxy)-5-chloro-3-methyl-phenyl]thieno[3,2-b]pyridin-2-yl]methyl]-1-methyl-pyrimidine-2,4-dione]	< 1
Cc1cc(Cl)cc(-c2ncnc3cc(Cn4c(=O)ccn(CC(F)(F)F)c4=O)sc23)c1O[C@H]1CC[C@](C)(N)C1 [Example 586, 3-[[4-[2-[(1S,3S)-3-amino-3-methyl-cyclopentoxy]-5-chloro-3-methyl-phenyl]thieno[3,2-d]pyrimidin-6-yl]methyl]-1-(2,2,2-trifluoroethyl)pyrimidine-2,4-dione; 2,2,2-trifluoroacetic acid]	< 1
Cc1cc(Cl)cc(-c2ccnc3cc(Cn4c(=O)ccn(CC(F)(F)F)c4=O)sc23)c1OCC1CNCCO1 (centres unmarked) [Example 651, 3-[[7-[5-chloro-3-methyl-2-(morpholin-2-ylmethoxy)phenyl]thieno[3,2-b]pyridin-2-yl]methyl]-1-(2,2,2-trifluoroethyl)pyrimidine-2,4-dione; 2,2,2-trifluoroacetic acid]	< 1
Cc1cc(Cl)cc(-c2ccnc(CCCN3C(=O)CCC3=O)c2)c1OC1CNC[C@@H]1F (stereo partly drawn) [Example 408, 1-[3-[4-[5-chloro-2-[(4S)-4-fluoropyrrolidin-3-yl]oxy-3-methyl-phenyl]-2-pyridyl]propyl]pyrrolidine-2,5-dione; 2,2,2-trifluoroacetic acid]	1 to 10
CC[C@@H]1C[C@H](Oc2c(C)cc(Cl)cc2-c2ccnc3cc(Cn4c(=O)ccn(CC(F)(F)F)c4=O)sc23)CCN1 [Example 636, 3-[[7-[5-chloro-2-[[(2R,4R)-2-ethyl-4-piperidyl]oxy]-3-methyl-phenyl]thieno[3,2-b]pyridin-2-yl]methyl]-1-(2,2,2-trifluoroethyl)pyrimidine-2,4-dione]	< 1
